Test results as given in US20120214846A1, “HEXAHYDROCYCLOPENTYL[F]INDAZOLE PYRIDYL ETHANOLS AND DERIVATIVES THEREOF AS SELECTIVE GLUCOCORTICOID RECEPTOR MODULATORS” (MERCK SHARP & DOHME CORP, priority 2009, published 2012).
≈ marks a conversion by molar mass, not a printed value.

Key:
Solubility at pH 2 = assay type: physicochemical; settings: pH 2, aqueous buffer, pH 2; read-out: Solubility At pH 2
GR [1] = molecular target: T1, GR (Homo sapiens, UniProt P04150); assay: GR Ligand Binding Assay (GR BIND), HeLa cell lysate, 3H-DEX; parameters: endogenous in cells; host or cells: HeLa (ATCC) cell lysate supernatant; settings: HeLa cell lysate, 3H-DEX; read-out: GR BIND Ki
T1 sequence (P04150 1-777): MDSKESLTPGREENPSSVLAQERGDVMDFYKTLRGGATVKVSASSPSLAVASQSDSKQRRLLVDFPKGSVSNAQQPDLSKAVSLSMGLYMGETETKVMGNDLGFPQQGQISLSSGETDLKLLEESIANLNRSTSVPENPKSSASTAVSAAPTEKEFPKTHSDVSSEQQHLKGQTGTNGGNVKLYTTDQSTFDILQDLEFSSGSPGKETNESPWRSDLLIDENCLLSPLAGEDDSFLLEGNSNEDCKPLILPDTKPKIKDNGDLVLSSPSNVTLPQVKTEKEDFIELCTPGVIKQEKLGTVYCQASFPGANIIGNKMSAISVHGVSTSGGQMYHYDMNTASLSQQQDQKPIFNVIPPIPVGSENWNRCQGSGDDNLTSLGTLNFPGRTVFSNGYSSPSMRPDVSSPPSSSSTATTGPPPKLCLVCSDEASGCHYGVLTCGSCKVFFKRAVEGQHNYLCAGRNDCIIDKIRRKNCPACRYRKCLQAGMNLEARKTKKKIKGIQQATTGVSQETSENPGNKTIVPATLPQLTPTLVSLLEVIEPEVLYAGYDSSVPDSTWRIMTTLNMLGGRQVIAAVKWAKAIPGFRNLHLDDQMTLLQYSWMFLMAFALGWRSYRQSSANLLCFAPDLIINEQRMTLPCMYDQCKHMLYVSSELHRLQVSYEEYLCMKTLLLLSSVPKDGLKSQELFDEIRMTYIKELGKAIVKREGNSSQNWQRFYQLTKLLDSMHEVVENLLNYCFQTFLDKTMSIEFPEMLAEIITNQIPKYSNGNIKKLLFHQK
Method: Binding Buffer: TEGM (10 mM Tris-HCl, 1 mM EDTA, 10% glycerol, 1 mM beta-mecaptoethanol, 10 mM Sodium Molybdate, pH 7.2)
Phenol red-free Trypsin-EDTA is diluted in the same PBS 1:10. The cell layers are rinsed with 1× Trypsin, extra Trypsin is poured out, and the cell layers are incubated at 37° C. for ˜2 min. The flask is tapped and checked for signs of cell detachment. Once the cells begin to slide off the flask, the complete media is added. The cells are counted at this point, then diluted to the appropriate concentration and split into flasks or dishes for further culturing (Usually 1:3 to 1:6 dilution).
The cell pellet is washed twice with TEGM (10 mM Tris-HCl, 1 mM EDTA, 10% glycerol, 1 mM beta-mercaptoethanol, 10 mM Sodium Molybdate, pH 7.2). […] The cell suspension is snap frozen in liquid nitrogen or ethanol/dry ice bath and transferred to −80° C. freezer on dry ice. Before setting up the binding assay, the frozen samples are left on ice-water to just thaw (˜1 hr). Then the samples are centrifuged at 12,500 g to 20,000 g for 30 min at 4° C. The supernatant is used to set-up assay right away. If using 50 μL of supernatant, the test compound can be prepared in 50 μL of the TEGM buffer.
1×TEGM buffer is prepared, and the isotope-containing assay mixture is prepared in the following order: EtOH (2% final concentration in reaction), 3H-DEX (Amersham Biosciences) and 1×TEGM. [e.g. For 100 samples, 200 μL (100×2) of EtOH+4.25 μL of 1:10 3H-Dex stock+2300 μL (100×23) 1×TEGM]. The compound is serially diluted, e.g., if starting final conc. is 1 μM, and the compound is in 25 μL of solution, for duplicate samples, 75 μL of 4×1 μM solution is made and 3 μL of 100 μM is added to 72 μL of buffer, and 1:5 serial dilution.
25 μL of 3H-DEX (6 nM) trace and 25 μl, compound solution are first mixed together, followed by addition of 50 μL receptor solution. The reaction is gently mixed, spun briefly at about 200 rpm and incubated at 4° C. overnight. 100 μL of 50% HAP slurry is prepared and added to the incubated reaction which is then vortexed and incubated on ice for 5 to 10 minutes. The reaction mixture is vortexed twice more to resuspend HAP while incubating reaction. The samples in 96-well format are then washed in wash buffer using The FilterMate™ Universal Harvester plate washer (Packard). The washing process transfers HAP pellet containing ligand-bound expressed receptor to Unifilter-96 GF/B filter plate (Packard). The HAP pellet on the filter plate is incubated with 50 μL of MICROSCINT (Packard) scintillint for 30 minutes before being counted on the TopCount microscintillation counter (Packard). IC50s are calculated using DEX as a reference.

GR [2] = molecular target: T1, GR; assay: Transrepression Assay (GITAR), TNFα-β-lactamase reporter, U937 cells; assay type: cell-based; parameters: U937 cells contain an endogenous glucocorticoid receptor (GR); endogenous in cells; host or cells: U937 cells stably transfected with the TNF-alpha promoter beta-lactamase reporter; settings: for EC50: U937 cells, inflection point, read-out: Transrepression U937 Cells GITAR IP; for Emax: U-937, U937 cells, activity repressed by 100 nM dexamethasone set as 100%, read-out: Transrepression U937 Cells GITAR Emax
Text: This assay assesses the ability of test compounds to control transcription from the TNFα-β-lactamase reporter gene in U937 cells, a human myelomonocytic leukemia cell line that naturally expresses the human GR. The assay measures compound dependent-repression of the TNFa promoter linked to a reporter gene.
The human U937 cells that had been stablely transfected with the TNF-α promoter driving […] are used for this assay. U937 cells contain an endogenous glucocorticoid receptor (GR). […] 50,000 cells/well are plated in 96 well black-walled plates the day of assay. Test compounds are added 10 μL/well, and cells are incubated at 37° C. for 30˜45 min. For assaying compounds, first dilute 1:10 in DMSO to make 1 mM, then further dilute 1:100 in medium to make 10× stock prior to adding to the cells. Add 50 ng/ml PMA (Sigma, cat#P8139) 10 μL/well to a final concentration 5 ng/ml, and 1 μg/ml LPS (Sigma, cat#L4130) 10 μL/well to a final concentration 100 ng/ml. Incubate cells at 37° C. overnight for ˜18 hr. PMA is stored frozen as 100 μg/ml stock in DMSO. Dilute 1:10 in DMSO for a working stock of […] and store at −20 C. For assaying, dilute the 10 μg/ml working stock 1:200 in medium to make a 10× solution (50 ng/ml). Store frozen LPS at 1 mg/ml in PBS, dilute 1:1000 in medium to make 10× (1 μg/ml) for the assay. Add 6× loading buffer (CCF2-AM) 20 μL/well, and incubate at room temperature for 70˜90 min. […] The activity repressed by 100 nM dexamethasone alone is set as 100% activity.

C[C@]12Cc3cnn(-c4ccc(F)cc4)c3C=C1CC[C@@]2(O)CC(O)c1ncccc1F (stereo partly drawn) [Example 4, (4αS,5R)-1-(4-fluorophenyl)-5-[2-(3-fluoropyridin-2-yl)-2-hydroxyethyl]-4α-methyl-1,4,4α,5,6,7-hexahydrocyclopenta[f]indazol-5-ol]
solubility (Solubility at pH 2): < 1 µM
Ki (GR [1]): 7.2 nM
EC50 (GR [2]): 360 nM
Emax (GR [2]): 70.6%

C[C@]12Cc3cnn(-c4ccc(F)cc4)c3C=C1CC[C@@]2(O)CC(O)c1ccc(C(F)(F)F)cn1 (stereo partly drawn) [Example 6, (4αS,5R)-1-(4-fluorophenyl)-5-{2-hydroxy-2-[5-(trifluoromethyl)pyridin-2-yl]ethyl}-4α-methyl-1,4,4α,5,6,7-hexahydrocyclopenta[f]indazol-5-ol]
solubility (Solubility at pH 2): 4 µM (≈ 1.89 µg/mL)
Ki (GR [1]): 2.7 nM
EC50 (GR [2]): 344 nM
Emax (GR [2]): 76.2%

C[C@]12Cc3cnn(-c4ccc(F)cc4)c3C=C1CC[C@@]2(O)CC(O)c1cc(C#N)ccn1 (stereo partly drawn) [Example 9, 2-{2-[(4αS,5R)-1-(4-fluorophenyl)-5-hydroxy-4α-methyl-1,4,4α,5,6,7-hexahydrocyclopenta[f]indazol-5-yl]-1-hydroxyethyl}pyridine-4-carbonitrile]
solubility (Solubility at pH 2): 104 µM (≈ 44.8 µg/mL)
Ki (GR [1]): 2.1 nM
EC50 (GR [2]): 48 nM
Emax (GR [2]): 74.9%

Cc1ccnc(C(O)C[C@]2(O)CCC3=Cc4c(cnn4-c4ccc(F)cc4)C[C@@]32C)c1 (stereo partly drawn) [Example 11, (4αS,5R)-1-(4-fluorophenyl)-5-[2-hydroxy-2-(4-methylpyridin-2-yl)ethyl]-4α-methyl-1,4,4α,5,6,7-hexahydrocyclopenta[f]indazol-5-ol]
solubility (Solubility at pH 2): 193 µM (≈ 81 µg/mL)
Ki (GR [1]): 3.9 nM
EC50 (GR [2]): 47.8 nM
Emax (GR [2]): 69.1%
